Literature values, collected in US20230066280A1, “DRUG ELUTING BIOMATERIALS” (UCL BUSINESS LTD, priority 2020, published 2023).

How the values were obtained:
[1] = test system: Rho; settings: SY5YAPP, HEK 293 and PC12 cells (ref 30)

Structure (SMILES) | levels of active Rho-GTP [1] | initial loaded drug released within 24 hours (ibuprofen from EVA, previous study (ref 24)) | release rate of ibuprofen from MSN (mesoporous silica nanoparticles, previous studies (ref 20))
CSc1ccc(/C=C2/C(C)=C(CC(=O)O)c3cc(F)ccc32)cc1 [sulindac sulfide] | reduced |  | 
CC(C)Cc1ccc(C(C)C(=O)O)cc1 (stereo not drawn) [ibuprofen] |  | 50% | 96.3%
